In the NIST ThermoML archive (doi:10.1016/j.tca.2013.12.016):

Assay: mn = molality of the nth substance listed, in mol/kg
Settings: 101 kPa, Liquid; for speed of sound: Linear variable-path acoustic interferometer; for mass density: Vibrating tube method

CCOC(C)=O [ethyl acetate] + CCO
Settings	mass density, 298.15 K [kg/m3]	mass density, 303.15 K [kg/m3]	mass density, 308.15 K [kg/m3]	mass density, 313.15 K [kg/m3]	speed of sound, 298.15 K [m/s]	speed of sound, 303.15 K [m/s]	speed of sound, 308.15 K [m/s]	speed of sound, 313.15 K [m/s]
m2 = 0.0124	894.9	888.4	882.9	877.2	1152	1135	1116	1093
m2 = 0.0357	894.7	888.2	882.7	877	1151	1134	1115	1091
m2 = 0.0713	894.4	887.9	882.4	876.4	1150	1133	1114	1090
m2 = 0.1025	894.2	887.7	882.2	876.5	1149	1130	1110	1089
m2 = 0.2087	893.5	887	881.5	875.8	1147	1128	1098	1077
m2 = 0.3504	892.6	886.1	880.6	874.9	1143	1123	1092	1069
m2 = 0.5065	891.7	885.3	879.8	874	1140	1119	1091	1067
m2 = 0.6771	890.7	884.4	878.9	873.2	1139	1116	1086	1062
m2 = 0.9772	889.1	883	877.4	871.8	1136	1113	1083	1059
m2 = 1.701	885.5	879.4	874	868.3	1131	1110	1080	1056
m2 = 2.712	880.6	874.7	869.3	863.7	1128	1107	1074	1053
m2 = 3.001	879.4	873.5	868.1	862.5	1122	1101	1068	1044
